Measured values as given in patent US7718781B2, “Hydroxypyridonate and hydroxypyrimidinone chelating agents” (The Regents of the University of California, priority 2001, dated 2010).

Experiments:
[1] = Water proton relaxivity (longitudinal relaxation rate, 20 MHz); type: physicochemical
Method: The efficacy of a paramagnetic complex as a possible MRI contrast agent depends on its ability to catalyze the nuclear magnetic relaxation rate of solvent protons (Lauffer, R. B., Chem. Rev., 87, 901 (1987); Tweedle, M. F.; Kumar, K. In Magnetic Resonance Imaging (MRI) Contrast Agents; Clarke, M. I., Sadler, P. J., Eds.; Springer: Berlin, Germany, Vol. 2, p. 1 (1999); Koenig et al., Prog. NMR Spectrosc., 22:487 (1990)). This property, which is measured in terms in relaxivity, r1p, is defined as the enhancement of the water proton longitudinal relaxation rate induced by a 1 mML^−1 solution of the paramagnetic compound at a given temperature and magnetic field strength (Aime et al., Chem. Soc. Rev., 27:19 (1998)).
In an exemplary assay, the longitudinal water proton relaxation rate at 20 MHz are measured (typically with a NMR spectrometer operating at 0.5 T) with a reproducibility of the T1 data to ±0.5%. Equipment for the control of temperature (with an accuracy of ±0.1° C.) during these measurements are employed.
Water proton relaxation measurements were carried out at 20 MHz with a Stelar Spinmaster Spectrometer (Mede, Pv, Italy) on 0.5-2 mM solutions of the Gd(III) complex. Spin-lattice relaxation times T1 were measured by the standard inversion recovery method with typical 90° pulse width of […], 16 experiments of 4 scans. The reproducibility of the data is ±1%. The temperature was controlled by a Stelar VTC-91 air-flow heater equipped with copper-constantan thermocouple (uncertainty ±0.1° C). The 1/T1 nuclear magnetic relaxation dispersion (NMRD) profiles of water protons were measured from 0.00024 to 1.2 T (corresponding to the range 0.01-50 MHz of proton Larmor frequencies) at 15, 25 and 39° C. using 1.5 mM solutions of the complex on the field-cycling Koenig-Brown relaxometer of the University of Torino (Italy). The temperature was controlled by circulating freon from an external bath and measured by a thermometer inserted into the freon close to the sample. The reproducibilities of the measured T1 values were estimated to be ±2%. […]

[2] = Variable temperature 17O NMR of water transverse relaxation rate (water exchange, q); type: physicochemical
Method: The mean residence water lifetime, τm, is generally determined by measuring the transverse ^17O NMR relaxation rate (R2p) at various temperatures. The variable-temperature ^17O NMR measurement is performed using spectrometers which operate at various magnetic field strengths (2.1 and 9.4 T are typically used) equipped with a 5 mm probe. A D2O external lock and solutions containing 2.6% of the ^17O isotope are used. The observed transverse relaxation rates are calculated from the signal width at half-height. […]
A variable temperature ^17O NMR study of the transverse relaxation rate of H2^17O (R2p) of Gd-TREN-1-Me-3,2-HOPO-TAM, Gd-TREN-1-Me-3,2-HOPO-TAM-PEG-2000 and Gd-TREN-1-Me-3,2-HOPO-TAM-PEG-5000 at 2.1 T was carried out. Analysis of the profiles also allows the number of coordinated water molecules, q to be evaluated. […]
The value of τm, was independently obtained by a variable temperature (VT) ^17O NMR measurement of the water nuclear transverse relaxation rate (R2). The data were measured at 2.1 T (90 MHz for the proton and 12 MHz for 170) and pH≈7. The curve was analyzed in terms of the well established equations of Swift-Connick, rearranged in a form suitable for Gd. […]
Variable-temperature ^17O NMR measurements were recorded on a JEOL EX-400 (9.4 T) spectrometer, equipped with a 5 mm probe, by using D20 for external lock of the magnetic field. […]

[3] = target: human serum albumin (HSA) (Homo sapiens, UniProt P02768); assay: Binding to HSA by proton relaxation enhancement (PRE) method
Text: Biomolecule affinity measurements are generally measured by art-recognized methods. For example, the non-covalent interaction between HSA and the metal complexes containing hydrophobic groups have been thoroughly investigated using the well-established proton relaxation enhancement (PRE) method (Caravan, P. E. et al., Chem. Rev. 1999, 99, 2293) that allows both the binding parameters (Ka) and the relaxivity enhancement of the (Metal complex)-HSA adduct to be determined. In this method, the water proton relaxation rates of solutions containing the metal complex and increasing concentrations of the serum protein are measured. […]
The longitudinal relaxation rate (R1) of water protons in a […] solution of Gd-TREN-1-Me-3,2-HOPO-TAM-PEG-5000 was measured with increasing concentrations of HSA (FIG. 19) at 20 MHz and 25° C. […]
An objective of synthesizing the Bn and MOB chelates was to investigate their interaction with HSA. The non-covalent interaction between HSA and the Gd complexes was investigated using the well-established proton relaxation enhancement (PRE) method that allows both the binding parameters (KA) and the relaxivity enhancement of the (Gd^3+ complex)-HSA adduct to be determined. In this method, the water proton longitudinal relaxation rates (R1) of solutions containing the Gd complex and increasing concentrations of the serum protein are measured.

Sequence of human serum albumin (HSA) (P02768 25-609): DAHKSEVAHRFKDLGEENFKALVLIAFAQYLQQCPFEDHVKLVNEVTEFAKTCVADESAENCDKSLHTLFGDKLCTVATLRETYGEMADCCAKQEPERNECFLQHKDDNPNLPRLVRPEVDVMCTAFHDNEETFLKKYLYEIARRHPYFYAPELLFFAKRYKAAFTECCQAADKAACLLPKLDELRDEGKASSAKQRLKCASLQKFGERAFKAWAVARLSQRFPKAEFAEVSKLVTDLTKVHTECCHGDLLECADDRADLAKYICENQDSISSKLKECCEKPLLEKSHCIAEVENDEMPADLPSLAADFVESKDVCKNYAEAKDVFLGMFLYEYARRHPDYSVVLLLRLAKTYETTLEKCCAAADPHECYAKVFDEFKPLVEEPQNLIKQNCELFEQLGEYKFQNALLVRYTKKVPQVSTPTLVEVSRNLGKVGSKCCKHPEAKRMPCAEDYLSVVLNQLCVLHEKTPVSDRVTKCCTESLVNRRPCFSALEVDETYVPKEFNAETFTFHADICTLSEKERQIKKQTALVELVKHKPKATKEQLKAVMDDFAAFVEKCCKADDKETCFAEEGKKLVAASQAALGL

KA (HSA)/M^−1 ([3]; HSA): <100 M⁻¹ | r1p^b/mM^−1s^−1 (HSA) ([3]; relaxivity of HSA-bound complex): 4.3 mM⁻¹ s⁻¹
SMILES: O=C([O-])CN(CCN(CC(=O)[O-])CC(=O)O)CCN(CC(=O)[O-])CC(=O)O.[Gd+3] [Gd-DTPA]
r1p/mM^−1s^−1 (20 MHz) [1]: 4.3 mM⁻¹ s⁻¹ | τM/ns [2]: 303 ns
